Assay results reported in patent publication US20240158446A1, “CYCLIC COMPOUND HAVING SELECTIVE INHIBITORY ACTION ON KRAS OVER HRAS AND NRAS” (CHUGAI SEIYAKU KABUSHIKI KAISHA, priority 2021, published 2024).
Like-named read-outs stand apart in the source and are kept apart here.

Tests used:
[1] = biological target: GDP-bound KRAS wild-type protein (Homo sapiens, UniProt P01116); test: Binding to KRAS by surface plasmon resonance (SPR), Single Cycle Kinetics; conditions: GDP-bound KRAS wild-type protein, read-out: KRAS KD
Sequence of GDP-bound KRAS wild-type protein (P01116 whole entry): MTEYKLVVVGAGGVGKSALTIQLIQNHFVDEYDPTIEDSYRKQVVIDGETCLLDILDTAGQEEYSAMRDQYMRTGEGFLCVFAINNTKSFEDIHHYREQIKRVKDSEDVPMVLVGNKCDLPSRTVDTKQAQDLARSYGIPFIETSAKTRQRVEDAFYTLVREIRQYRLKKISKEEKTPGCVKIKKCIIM

[2] = biological target: GDP-bound NRAS wild-type protein (Homo sapiens, UniProt P01111); test: Binding to NRAS by surface plasmon resonance (SPR), Single Cycle Kinetics; conditions: for NRAS/KRAS (ratio of KD value with respect to GDP-bound NRAS wild-type protein to KD value with respect to KRAS): SPR KD ratio NRAS/KRAS, class symbols; for NRAS/KRAS (ratio of KD value for NRAS to KD value for KRAS): SPR, GDP-bound NRAS wild-type protein vs GDP-bound KRAS wild-type protein
Sequence of GDP-bound NRAS wild-type protein (P01111 whole entry): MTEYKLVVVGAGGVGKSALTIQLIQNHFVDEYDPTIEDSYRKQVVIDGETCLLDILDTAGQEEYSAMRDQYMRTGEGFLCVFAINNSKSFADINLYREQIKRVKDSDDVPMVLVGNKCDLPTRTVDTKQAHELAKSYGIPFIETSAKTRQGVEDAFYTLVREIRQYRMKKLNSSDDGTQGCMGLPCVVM

[3] = biological target: GDP-bound HRAS wild-type protein (Homo sapiens, UniProt P01112); test: Binding to HRAS by surface plasmon resonance (SPR), Single Cycle Kinetics; conditions: for HRAS/KRAS (ratio of KD value with respect to GDP-bound HRAS wild-type protein to KD value with respect to KRAS): SPR KD ratio HRAS/KRAS, class symbols; for HRAS/KRAS (ratio of KD value for HRAS to KD value for KRAS): SPR, GDP-bound HRAS wild-type protein vs GDP-bound KRAS wild-type protein
Sequence of GDP-bound HRAS wild-type protein (P01112 whole entry): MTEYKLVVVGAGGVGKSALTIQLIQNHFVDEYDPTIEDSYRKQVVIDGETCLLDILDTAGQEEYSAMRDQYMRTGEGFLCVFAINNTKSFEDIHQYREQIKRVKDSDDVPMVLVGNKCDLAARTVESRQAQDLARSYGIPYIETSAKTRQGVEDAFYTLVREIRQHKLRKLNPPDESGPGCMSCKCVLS

[4] = test system: human lung cancer strain NCI-H441;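 also: cell proliferation inhibition after four days measured by CellTiter-Glo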
[5] = SPR Single Cycle Kinetics, 1:1 binding model
[6] = SPR, Single Cycle Kinetics, 1:1 binding model

| Kd [1, 5] [nM] | IC50 [4] [nM] | Kd ([1]; SPR, Single Cycle Kinetics) [nM] | Kd [1, 6] [nM] | Structure (SMILES) | NRAS/KRAS (ratio of KD value with respect to GDP-bound NRAS wild-type protein to KD value with respect to KRAS) [2] | HRAS/KRAS (ratio of KD value with respect to GDP-bound HRAS wild-type protein to KD value with respect to KRAS) [3] | NRAS/KRAS (ratio of KD value for NRAS to KD value for KRAS) [2] | HRAS/KRAS (ratio of KD value for HRAS to KD value for KRAS) [3] | NRAS/KRAS (ratio of KD value for NRAS to KD value for KRAS) ([2]; KD ratio class) | HRAS/KRAS (ratio of KD value for HRAS to KD value for KRAS) ([3]; KD ratio class) |
| --- | --- | --- | --- | --- | --- | --- | --- | --- | --- | --- |
| 1 | 76.1 |  |  | CCC[C@H]1C(=O)N[C@@H]([C@@H](C)CC)C(=O)N(C2CC2)CC(=O)N(C)[C@H]2C/C=C\CCN(C2=O)[C@@H](Cc2ccc(C)cc2)C(=O)N(C)CC(=O)N[C@@H](CCc2ccc(Cl)c(Cl)c2)C(=O)N2C[C@H](OC(C)C)C[C@H]2C(=O)NC2(CC(C)(C)C2)C(=O)N(C)[C@@H](C2CCCC2)C(=O)N(C)[C@H](C(=O)N(C)C)CC(=O)N1C [PP2571] | A (a compound having 10 or more and less than 20 is denoted as A) | A (a compound having 10 or more and less than 20 is denoted as A) |  |  |  |  |
|  | 48.3 | 0.88 |  | CCC[C@H]1C(=O)N[C@@H]([C@@H](C)CC)C(=O)N(C2CC2)CC(=O)N(C)[C@H]2C/C=C\CCN(C2=O)[C@@H](CC2CCC(F)(F)CC2)C(=O)N(C)CC(=O)N[C@@H](CCc2ccc(C(F)(F)F)c(OC)c2)C(=O)N2C[C@@H](C)C[C@H]2C(=O)N(C)C2(CCC2)C(=O)N(C)[C@@H](C2CCCC2)C(=O)N(C)[C@H](C(=O)N(C)C)CC(=O)N1C [PP2378] |  |  | B (a compound having 3 or more and less than 10 is denoted as B) | A (a compound having 10 or more and less than 20 is denoted as A) |  |  |
|  | 6.5 | 0.66 |  | CCOC[C@H]1C(=O)N[C@@H]([C@@H](C)CC)C(=O)N(C2CC2)CC(=O)N(C)[C@H]2C/C=C\CCN(C2=O)[C@@H](CC2CCCCC2)C(=O)N(C)CC(=O)N[C@@H](CCc2ccc(C(F)(F)F)c(OC)c2)C(=O)N2C[C@@H](C)C[C@H]2C(=O)N(C)C2(CCC2)C(=O)N(C)[C@@H](C2CCCC2)C(=O)N(C)[C@H](C(=O)N(C)C)CC(=O)N1C [PP2373] |  |  | A (a compound having 10 or more and less than 20 is denoted as A) | A (a compound having 10 or more and less than 20 is denoted as A) |  |  |
|  | 25.1 |  | 0.24 | CCO[C@@H]1C[C@H]2C(=O)NC3(CCC3)C(=O)N(C)[C@@H](C3CCCC3)C(=O)N(C)[C@H](C(=O)N3CCOCC3)CC(=O)N(C)[C@@H](CC3CCCC3)C(=O)N[C@@H]([C@@H](C)CC)C(=O)N(C)CC(=O)N(C)[C@H]3C/C=C\CCN(C3=O)[C@@H](Cc3ccc(C)cc3)C(=O)N(C)CC(=O)N[C@@H](CCc3cc(F)c(C(F)(F)F)c(F)c3)C(=O)N2C1 [PP1394] |  |  |  |  | AA (a compound having 20 or more is denoted as AA) | A (a compound having 10 or more and less than 20 is denoted as A) |
| 0.076 | 2.3 |  |  | CCC[C@H]1C(=O)N[C@@H]([C@@H](C)CC)C(=O)N(C)CC(=O)N(C)[C@H]2C/C=C\CCN(C2=O)[C@@H](Cc2ccc(C)cc2)C(=O)N(C)CC(=O)N[C@@H](CCc2cc(F)c(C(F)(F)F)c(F)c2)C(=O)N2C[C@H](OCC)C[C@H]2C(=O)NC2(CC(C)(C)C2)C(=O)N(C)[C@@H](CC(C)(C)C)C(=O)N(C)[C@H](C(=O)N(C)C)CC(=O)N1C [PP2706] | A (a compound having 10 or more and less than 20 is denoted as A) | B (a compound having 3 or more and less than 10 is denoted as B) |  |  |  |  |
|  | 3.2 | 0.93 |  | CCCOC[C@H]1C(=O)N[C@@H]([C@@H](C)CC)C(=O)N2CCC[C@H]2C(=O)N(C)[C@H]2C/C=C\CCN(C2=O)[C@@H](CC2CCC(F)(F)CC2)C(=O)N(C)CC(=O)N[C@@H](CCc2ccc(C(F)(F)F)c(OC)c2)C(=O)N2C[C@@H](C)C[C@H]2C(=O)N(C)C2(CCC2)C(=O)N(C)[C@@H](C2CCCC2)C(=O)N(C)[C@H](C(=O)N(C)C)CC(=O)N1C [PP2381] |  |  | A (a compound having 10 or more and less than 20 is denoted as A) | A (a compound having 10 or more and less than 20 is denoted as A) |  |  |
|  | 124 | 2.9 |  | CCC[C@H]1C(=O)N[C@@H](CC(C)C)C(=O)N(CC)CC(=O)N(C)[C@H]2C/C=C\CCN(C2=O)[C@@H](Cc2ccc(C)cc2)C(=O)N(C)CC(=O)N[C@@H](CCc2cc(F)c(C(F)(F)F)c(F)c2)C(=O)N2C[C@H](OCC)C[C@H]2C(=O)NC2(CC(C)(C)C2)C(=O)N(C)[C@@H](C2CCCC2)C(=O)N(C)[C@H](C(=O)N(C)C)CC(=O)N1C [PP2516] |  |  | A (a compound having 10 or more and less than 20 is denoted as A) | B (a compound having 3 or more and less than 10 is denoted as B) |  |  |
| 0.27 | 13.4 |  |  | CCO[C@@H]1C[C@H]2C(=O)NC3(CC(C)(C)C3)C(=O)N(C)[C@@H](C3CCCCC3)C(=O)N(C)[C@H](C(=O)N(C)C)CC(=O)N(C)[C@@H](COC)C(=O)N[C@@H]([C@@H](C)CC)C(=O)N(C)CC(=O)N(C)[C@H]3C/C=C\CCN(C3=O)[C@@H](Cc3ccc(C(F)(F)F)cc3)C(=O)N(C)CC(=O)N[C@@H](CCc3ccc(Cl)c(Cl)c3)C(=O)N2C1 [PP2661] | AA (a compound having 20 or more is denoted as AA) | A (a compound having 10 or more and less than 20 is denoted as A) |  |  |  |  |
| 0.29 | 38.5 |  |  | CCC[C@H]1C(=O)N[C@@H]([C@@H](C)CC)C(=O)N2C[C@@H](OC)C[C@H]2C(=O)N(C)[C@H]2C/C=C\CCN(C2=O)[C@@H](Cc2ccc(C)cc2)C(=O)N(C)CC(=O)N[C@@H](CCc2cc(F)c(C(F)(F)F)c(F)c2)C(=O)N2C[C@H](OCC)C[C@H]2C(=O)NC2(CCC2)C(=O)N(C)[C@@H](C2CCCC2)C(=O)N(C)[C@H](C(=O)N(C)C)CC(=O)N1C [PP2550] | A (a compound having 10 or more and less than 20 is denoted as A) | B (a compound having 3 or more and less than 10 is denoted as B) |  |  |  |  |
| 4.3 | 330 |  |  | CCC[C@H]1C(=O)N[C@@H](CC(C)C)C(=O)N(CC)CC(=O)N(C)[C@H]2C/C=C\CCN(C2=O)[C@@H](Cc2ccc(C)cc2)C(=O)N(C)CC(=O)N[C@@H](CCc2cc(F)c(C(F)(F)F)c(F)c2)C(=O)N2C[C@H](OCC)C[C@H]2C(=O)NC2(CCC2)C(=O)N(C)[C@@H](C2CCCC2)C(=O)N(C)[C@H](C(=O)N(C)C)CC(=O)N1C [PP2539] | A (a compound having 10 or more and less than 20 is denoted as A) | B (a compound having 3 or more and less than 10 is denoted as B) |  |  |  |  |
|  | 3.2 |  | 0.068 | CCO[C@@H]1C[C@H]2C(=O)NC3(CCCC3)C(=O)N(C)[C@@H](C3CCCC3)C(=O)N(C)[C@H](C(=O)N3CCOCC3)CC(=O)N(C)[C@@H](CC)C(=O)N[C@@H]([C@@H](C)CC)C(=O)N(C)CC(=O)N(C)[C@H]3C[C@@H](C)[C@@H](C)CN(C3=O)[C@@H](Cc3ccc(C(F)(F)F)cc3)C(=O)N(C)CC(=O)N[C@@H](CCc3ccc(C(F)(F)F)c(Cl)c3)C(=O)N2C1 [PP1359] |  |  |  |  | A (a compound having 10 or more and less than 20 is denoted as A) | B (a compound having 3 or more and less than 10 is denoted as B) |
|  | 13 | 0.036 |  | CCCO[C@@H]1C[C@H]2C(=O)NC3(CCC3)C(=O)N(C)[C@@H](C3CCCC3)C(=O)N(C)[C@H](C(=O)N3CCOCC3)CC(=O)N(C)[C@@H](CC(C)C)C(=O)N[C@@H]([C@@H](C)CC)C(=O)N(C)CC(=O)N(C)[C@H]3CCCCN(C3=O)[C@@H](Cc3ccc(C(F)(F)F)cc3)C(=O)N(C)CC(=O)N[C@@H](CCc3cc(F)c(C(F)(F)F)c(F)c3)C(=O)N2C1 [PP1159] |  |  | C (A compound having a KD ratio of 0.1 or more and less than 3 is denoted as C) | B (a compound having 3 or more and less than 10 is denoted as B) |  |  |
| 0.7 | 180 |  |  | CCOC[C@H]1C(=O)N[C@@H]([C@@H](C)CC)C(=O)N(C)CC(=O)N(C)[C@H]2C/C=C\CCN(C2=O)[C@@H](Cc2ccc(C(F)(F)F)cc2)C(=O)N(C)CC(=O)N[C@@H](CCc2ccc(C(F)(F)F)c(OC)c2)C(=O)N2C[C@H](OCC)C[C@H]2C(=O)NC2(CC(C)(C)C2)C(=O)N(C)[C@@H](CC2CCC2)C(=O)N(C)[C@H](C(=O)N(C)C)CC(=O)N1C [PP2765] | A (a compound having 10 or more and less than 20 is denoted as A) | A (a compound having 10 or more and less than 20 is denoted as A) |  |  |  |  |
